According to the NIST ThermoML archive (doi:10.1016/j.jct.2016.03.030):

Experiment: xn = mol fraction of the nth substance listed
Settings: 100 kPa, Liquid; for viscosity: Falling or rolling sphere viscometry; for mass density: Vibrating tube method

CCCCC[N+]1(C)CCOCC1.[Br-] [4-methyl-4-pentylmorpholinium bromide] + O
Settings	mass density [kg/m3]	viscosity [mPa·s]
298.15 K, x1 = 0.0316	1072.8	1.957
298.15 K, x1 = 0.0695	1127.6	4.131
298.15 K, x1 = 0.0965	1153.8	6.746
298.15 K, x1 = 0.1196	1170	9.795
298.15 K, x1 = 0.1522	1187.7	16.25
298.15 K, x1 = 0.2054	1208.2	36.11
298.15 K, x1 = 0.219	1212.2	44.38
298.15 K, x1 = 0.2438	1218.9	64.59
298.15 K, x1 = 0.2754	1226	103.9
303.15 K, x1 = 0.0316	1070.5	1.7
303.15 K, x1 = 0.0695	1124.5	3.505
303.15 K, x1 = 0.0965	1150.6	5.63
303.15 K, x1 = 0.1196	1166.6	8.076
303.15 K, x1 = 0.1522	1184.4	13.14
303.15 K, x1 = 0.2054	1204.9	28.07
303.15 K, x1 = 0.219	1208.8	34.04
303.15 K, x1 = 0.2438	1215.6	48.66
303.15 K, x1 = 0.2754	1222.7	76.46
308.15 K, x1 = 0.0316	1067.9	1.484
308.15 K, x1 = 0.0695	1121.3	2.997
308.15 K, x1 = 0.0965	1147.2	4.74
308.15 K, x1 = 0.1196	1163.3	6.709
308.15 K, x1 = 0.1522	1181	10.79
308.15 K, x1 = 0.2054	1201.5	22.24
308.15 K, x1 = 0.219	1205.5	26.62
308.15 K, x1 = 0.2438	1212.2	37.45
308.15 K, x1 = 0.2754	1219.4	57.57
313.15 K, x1 = 0.0316	1065.3	1.309
313.15 K, x1 = 0.0695	1118.1	2.586
313.15 K, x1 = 0.0965	1143.9	4.035
313.15 K, x1 = 0.1196	1159.8	5.642
313.15 K, x1 = 0.1522	1177.5	8.994
313.15 K, x1 = 0.2054	1198.1	17.82
313.15 K, x1 = 0.219	1202.1	21.2
313.15 K, x1 = 0.2438	1208.9	29.17
313.15 K, x1 = 0.2754	1216.1	44.03
318.15 K, x1 = 0.0316	1062.6	1.159
318.15 K, x1 = 0.0695	1114.9	2.252
318.15 K, x1 = 0.0965	1140.5	3.465
318.15 K, x1 = 0.1196	1156.4	4.796
318.15 K, x1 = 0.1522	1174.1	7.569
318.15 K, x1 = 0.2054	1194.7	14.56
318.15 K, x1 = 0.219	1198.7	17.13
318.15 K, x1 = 0.2438	1205.5	23.22
318.15 K, x1 = 0.2754	1212.7	34.22
323.15 K, x1 = 0.0316	1059.7	1.023
323.15 K, x1 = 0.0695	1111.5	1.95
323.15 K, x1 = 0.0965	1137	2.963
323.15 K, x1 = 0.1196	1152.9	4.065
323.15 K, x1 = 0.1522	1170.6	6.349
323.15 K, x1 = 0.2054	1191.3	11.9
323.15 K, x1 = 0.219	1195.4	13.89
323.15 K, x1 = 0.2438	1202.2	18.52
323.15 K, x1 = 0.2754	1209.4	26.85
328.15 K, x1 = 0.0316	1056.6	0.908
328.15 K, x1 = 0.0695	1108.1	1.703
328.15 K, x1 = 0.0965	1133.5	2.557
328.15 K, x1 = 0.1196	1149.4	3.475
328.15 K, x1 = 0.1522	1167.1	5.382
328.15 K, x1 = 0.2054	1187.9	9.86
328.15 K, x1 = 0.219	1191.9	11.44
328.15 K, x1 = 0.2438	1198.8	15.02
328.15 K, x1 = 0.2754	1206.1	21.35
333.15 K, x1 = 0.0316	1053.5	0.817
333.15 K, x1 = 0.0695	1104.7	1.504
333.15 K, x1 = 0.0965	1130	2.234
333.15 K, x1 = 0.1196	1145.9	3.003
333.15 K, x1 = 0.1522	1163.6	4.616
333.15 K, x1 = 0.2054	1184.4	8.297
333.15 K, x1 = 0.219	1188.5	9.561
333.15 K, x1 = 0.2438	1195.4	12.38
333.15 K, x1 = 0.2754	1202.7	17.33
338.15 K, x1 = 0.0316	1050.5	0.74
338.15 K, x1 = 0.0695	1101.2	1.374
338.15 K, x1 = 0.0965	1126.5	1.965
338.15 K, x1 = 0.1196	1142.3	2.724
338.15 K, x1 = 0.1522	1160.1	3.961
338.15 K, x1 = 0.2054	1180.9	7.055
338.15 K, x1 = 0.219	1185.1	8.079
338.15 K, x1 = 0.2438	1192	10.39
338.15 K, x1 = 0.2754	1199.3	14.54
343.15 K, x1 = 0.0316	1047.2	0.677
343.15 K, x1 = 0.0695	1097.8	1.288
343.15 K, x1 = 0.0965	1122.9	1.733
343.15 K, x1 = 0.1196	1138.7	2.554
343.15 K, x1 = 0.1522	1156.5	3.412
343.15 K, x1 = 0.2054	1177.5	6.064
343.15 K, x1 = 0.219	1181.6	7.061
343.15 K, x1 = 0.2438	1188.5	8.615
343.15 K, x1 = 0.2754	1196	12.93
